Results published in patent publication US20260216206A1 (MEDINCELL SA, priority 2023, published 2026).

Columns and labels:
[1] = after oral administration; cited from earlier work
[2] = Open-label SAD and MAD study, pharmacokinetics in healthy subjects and patients (Example 5); type: in vivo, humans; conditions: oral, 2.5 to 20 mg/day for 7 days, steady-state
Procedure: (§1) This study was an open-label, SAD, and MAD study to evaluate the safety, tolerability, and PK of Formulation 1 in healthy subjects and patients with a diagnosis of schizophrenia or schizoaffective disorder. Healthy subjects received subtherapeutic Formulation 1 doses of up to 105 mg and patients received therapeutic doses of up to 566 mg. […] Subjects and patients who met screening eligibility were assigned to 1 of 8 active cohorts, or the Vehicle Cohort, as detailed in Table 5.1 below.
All cohorts included assessments of safety, tolerability, and intensive PK sampling.
Except for the starting dose of 70 mg, the study followed an adaptive design in which the decision to dose-escalate with Formulation 1 was based on a review of the PK and safety data from the preceding lower dose of Formulation 1.
An extensive PK collection scheme was applied following the last oral dose to fully characterize the PK at steady-state.
In multiple-dose cohorts, the 3 doses of Formulation 1 were administered on day 1, day 29 (week 4) and day 57 (week 8), respectively.

[3] = Open-label SAD and MAD study, safety and tolerability in healthy subjects and patients (Example 5); type: in vivo, humans; conditions: washout period following oral olanzapine, 4/127
Procedure: as §1
Safety was assessed during the study by evaluating AEs, clinical laboratory test results (serum, hematology, urinalysis, and prolactin), vital signs measurements, ECG, physical examination, injection site pain, local tolerability, and leakage assessment. […]
The safety endpoints in this study included incidence of adverse events, changes from baseline in ECG parameters, selected clinical laboratory values (including prolactin) and vital signs, as well as changes in neurological and clinical symptom assessments (eg, PANSS, ESRS, AIMS, BARS, CGI-S, C-SSRS), and other safety measures that were evaluated throughout the study.

Cc1cc2c(s1)Nc1ccccc1N=C2N1CCN(C)CC1 [olanzapine, 2-methyl-4-(4-methyl-1-piperazinyl)-10H-thieno[2,3-b][1,5]benzodiazepine]
Half life [1]: approximately 30 hours | Systemic exposure (Cmax, AUCt,ss) versus dose [2]: dose-proportional | Participants withdrawn due to adverse events [3]: 3.1%
